In US20140357713A1, “ANTIMICROBIAL COMPOUNDS AND METHODS OF USE” (NexMed Holdings, Inc., priority 2012, published 2014):

Tests used:
Type in all cases: cell-based
[1] = tested on: Staphylococcus aureus; test: Extended time kill study, Example 34 (0 to 24 h)
How it was run: (§1)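 Strain suspensions prepared as for MIC testing were mixed 1:1 with compound solution at higher multiples of MIC. Samples taken over 0 to 24 h were diluted in test medium and plated on agar, and colonies were counted after 24–48 h incubation.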

[2] = tested on: Pseudomonas aeruginosa; test: Extended time kill study, Example 34 (0 to 24 h)
How it was run: as §1

[3] = tested on: Candida albicans; test: Extended time kill study, Example 34 (0 to 24 h)
How it was run: as §1

[4] = tested on: Aspergillus niger; test: Extended time kill study, Example 34 (0 to 24 h)
How it was run: as §1

[5] = tested on: Escherichia coli; test: Extended time kill study, Example 34 (0 to 24 h)
How it was run: as §1

[6] = tested on: Aspergillus niger (CMCC 98003); test: Time kill study, Example 33 (0 to 5 min); conditions: 1×MIC
Description: Thirty compounds were tested for antimicrobial activity using standard procedures and standard strains for both the minimum inhibitory concentration (MIC) assay and a time kill study. Both the MIC assay and the time kill study were performed according to Clinical and Laboratory Standards Institute (CLSI) guidelines. Three bacteria strains, Escherichia coli (ATCC 25922), Pseudomonas aeruginosa (ATCC 27853), Staphulococcus aureus (ATCC 29213), and two fungus strains, Candida albicans (ATCC 90029) and Aspergillus niger (CMCC 98003), were used in the experiments.
The viable counts in Log10 CFU/mL at each time point were recorded.
Time kill studies. Strain suspensions were prepared as described above for the MIC test, and strain suspensions and compound solutions were mixed in the same volume. Samples were removed at specified times including 0 min, 30 sec, 1 min and 5 mins, were diluted in the test medium and streaked on agar. Colonies were counted after 24 to 48 hrs of incubation.
The MIC values for thirty compounds against Escherichia coli, Pseudomonas aeruginosa, Staphulococcus aureus, Candida albicans, and Aspergillus niger were recorded and are presented in Table 3 and Table 4.

CCCCCCCCCCCCOC(=O)C(C)NCCO.Cl (stereo not shown) [Nex-61, Dodecyl 2-((2-hydroxyethyl)amino)propanoate hydrochloride]
Viable counts, Staphylococcus aureus time kill study ([1]; 1 × MIC, 1 h): 5 Log10 CFU/mL | Viable counts, Staphylococcus aureus time kill study ([1]; 1 × MIC, 2 h): <3 Log10 CFU/mL | Viable counts, Staphylococcus aureus time kill study ([1]; 1 × MIC, 4 h): <3 Log10 CFU/mL | Viable counts, Staphylococcus aureus time kill study ([1]; 1 × MIC, 6 h): <3 Log10 CFU/mL | Viable counts, Staphylococcus aureus time kill study ([1]; 1 × MIC, 24 h): <1 Log10 CFU/mL | Viable counts, Staphylococcus aureus time kill study ([1]; 1×MIC, time 0): 6.14 Log10 CFU/mL | Viable counts, Staphylococcus aureus time kill study ([1]; 2 × MIC, 1 h): <3 Log10 CFU/mL | Viable counts, Staphylococcus aureus time kill study ([1]; 2 × MIC, 2 h): <3 Log10 CFU/mL | Viable counts, Staphylococcus aureus time kill study ([1]; 2 × MIC, 4 h): <3 Log10 CFU/mL | Viable counts, Staphylococcus aureus time kill study ([1]; 2 × MIC, 6 h): <3 Log10 CFU/mL | Viable counts, Staphylococcus aureus time kill study ([1]; 2 × MIC, 24 h): <1 Log10 CFU/mL | Viable counts, Staphylococcus aureus time kill study ([1]; 2 × MIC, time 0): 6.20 Log10 CFU/mL | Viable counts, Staphylococcus aureus time kill study ([1]; 4 × MIC, 1 h): <3 Log10 CFU/mL | Viable counts, Staphylococcus aureus time kill study ([1]; 4 × MIC, 2 h): <3 Log10 CFU/mL | Viable counts, Staphylococcus aureus time kill study ([1]; 4 × MIC, 4 h): <3 Log10 CFU/mL | Viable counts, Staphylococcus aureus time kill study ([1]; 4 × MIC, 6 h): <3 Log10 CFU/mL | Viable counts, Staphylococcus aureus time kill study ([1]; 4 × MIC, 24 h): <1 Log10 CFU/mL | Viable counts, Staphylococcus aureus time kill study ([1]; 4 × MIC, time 0): 6.18 Log10 CFU/mL | Viable counts, Pseudomonas aeruginosa time kill study ([2]; 1 × MIC, 1 h): <1 Log10 CFU/mL | Viable counts, Pseudomonas aeruginosa time kill study ([2]; 1 × MIC, 2 h): <1 Log10 CFU/mL | Viable counts, Pseudomonas aeruginosa time kill study ([2]; 1 × MIC, 4 h): <1 Log10 CFU/mL | Viable counts, Pseudomonas aeruginosa time kill study ([2]; 1 × MIC, 6 h): <1 Log10 CFU/mL | Viable counts, Pseudomonas aeruginosa time kill study ([2]; 1 × MIC, 24 h): <1 Log10 CFU/mL | Viable counts, Pseudomonas aeruginosa time kill study ([2]; 1×MIC, time 0): 5.28 Log10 CFU/mL | Viable counts, Pseudomonas aeruginosa time kill study ([2]; 2 × MIC, 1 h): <1 Log10 CFU/mL | Viable counts, Pseudomonas aeruginosa time kill study ([2]; 2 × MIC, 2 h): <1 Log10 CFU/mL | Viable counts, Pseudomonas aeruginosa time kill study ([2]; 2 × MIC, 4 h): <1 Log10 CFU/mL | Viable counts, Pseudomonas aeruginosa time kill study ([2]; 2 × MIC, 6 h): <1 Log10 CFU/mL | Viable counts, Pseudomonas aeruginosa time kill study ([2]; 2 × MIC, 24 h): <1 Log10 CFU/mL | Viable counts, Pseudomonas aeruginosa time kill study ([2]; 2 × MIC, time 0): 5.29 Log10 CFU/mL | Viable counts, Pseudomonas aeruginosa time kill study ([2]; 4 × MIC, 1 h): <1 Log10 CFU/mL | Viable counts, Pseudomonas aeruginosa time kill study ([2]; 4 × MIC, 2 h): <1 Log10 CFU/mL | Viable counts, Pseudomonas aeruginosa time kill study ([2]; 4 × MIC, 4 h): <1 Log10 CFU/mL | Viable counts, Pseudomonas aeruginosa time kill study ([2]; 4 × MIC, 6 h): <1 Log10 CFU/mL | Viable counts, Pseudomonas aeruginosa time kill study ([2]; 4 × MIC, 24 h): <1 Log10 CFU/mL | Viable counts, Pseudomonas aeruginosa time kill study ([2]; 4 × MIC, time 0): 5.26 Log10 CFU/mL | Viable counts in Log10 CFU/mL ([3]; 1 × MIC, 1 h): 5.37 Log10 CFU/mL | Viable counts in Log10 CFU/mL ([3]; 1 × MIC, 2 h): 5.37 Log10 CFU/mL | Viable counts in Log10 CFU/mL ([3]; 1 × MIC, 4 h): 5.32 Log10 CFU/mL | Viable counts in Log10 CFU/mL ([3]; 1 × MIC, 6 h): 5.54 Log10 CFU/mL | Viable counts in Log10 CFU/mL ([3]; 1 × MIC, 24 h): >6 Log10 CFU/mL | Viable counts in Log10 CFU/mL ([3]; 1 × MIC, 0 h): 5.43 Log10 CFU/mL | Viable counts in Log10 CFU/mL ([3]; 2 × MIC, 1 h): <3 Log10 CFU/mL | Viable counts in Log10 CFU/mL ([3]; 2 × MIC, 2 h): <3 Log10 CFU/mL | Viable counts in Log10 CFU/mL ([3]; 2 × MIC, 4 h): <2.70 Log10 CFU/mL | Viable counts in Log10 CFU/mL ([3]; 2 × MIC, 6 h): <2.70 Log10 CFU/mL | Viable counts in Log10 CFU/mL ([3]; 2 × MIC, 24 h): >6 Log10 CFU/mL | Viable counts in Log10 CFU/mL ([3]; 2 × MIC, 0 h): 5.48 Log10 CFU/mL | Viable counts in Log10 CFU/mL ([3]; 4 × MIC, 1 h): <3 Log10 CFU/mL | Viable counts in Log10 CFU/mL ([3]; 4 × MIC, 2 h): <3 Log10 CFU/mL | Viable counts in Log10 CFU/mL ([3]; 4 × MIC, 4 h): <2.70 Log10 CFU/mL | Viable counts in Log10 CFU/mL ([3]; 4 × MIC, 6 h): <2.70 Log10 CFU/mL | Viable counts in Log10 CFU/mL ([3]; 4 × MIC, 24 h): <1 Log10 CFU/mL | Viable counts in Log10 CFU/mL ([3]; 4 × MIC, 0 h): 5.39 Log10 CFU/mL | Viable counts in Log10 CFU/mL ([4]; 1 × MIC, 1 h): 5.48 Log10 CFU/mL | Viable counts in Log10 CFU/mL ([4]; 1 × MIC, 2 h): 5.36 Log10 CFU/mL | Viable counts in Log10 CFU/mL ([4]; 1 × MIC, 4 h): 5.18 Log10 CFU/mL | Viable counts in Log10 CFU/mL ([4]; 1 × MIC, 6 h): 4.95 Log10 CFU/mL | Viable counts in Log10 CFU/mL ([4]; 1 × MIC, 24 h): 4.48 Log10 CFU/mL | Viable counts in Log10 CFU/mL ([4]; 1 × MIC, 0 h): 5.28 Log10 CFU/mL | Viable counts in Log10 CFU/mL ([4]; 2 × MIC, 1 h): 5.52 Log10 CFU/mL | Viable counts in Log10 CFU/mL ([4]; 2 × MIC, 2 h): 5.57 Log10 CFU/mL | Viable counts in Log10 CFU/mL ([4]; 2 × MIC, 4 h): 4.48 Log10 CFU/mL | Viable counts in Log10 CFU/mL ([4]; 2 × MIC, 6 h): 4.90 Log10 CFU/mL | Viable counts in Log10 CFU/mL ([4]; 2 × MIC, 24 h): 3 Log10 CFU/mL | Viable counts in Log10 CFU/mL ([4]; 2 × MIC, 0 h): 5.33 Log10 CFU/mL | Viable counts in Log10 CFU/mL ([4]; 4 × MIC, 1 h): 5.34 Log10 CFU/mL | Viable counts in Log10 CFU/mL ([4]; 4 × MIC, 2 h): 5.41 Log10 CFU/mL | Viable counts in Log10 CFU/mL ([4]; 4 × MIC, 4 h): 5.28 Log10 CFU/mL | Viable counts in Log10 CFU/mL ([4]; 4 × MIC, 6 h): 4.95 Log10 CFU/mL | Viable counts in Log10 CFU/mL ([4]; 4 × MIC, 24 h): <2 Log10 CFU/mL | Viable counts in Log10 CFU/mL ([4]; 4 × MIC, 0 h): 5.26 Log10 CFU/mL | Viable counts, Escherichia coli time kill study ([5]; 1 × MIC, 1 h): 1.70 Log10 CFU/mL | Viable counts, Escherichia coli time kill study ([5]; 1 × MIC, 2 h): 1.60 Log10 CFU/mL | Viable counts, Escherichia coli time kill study ([5]; 1 × MIC, 4 h): 3.16 Log10 CFU/mL | Viable counts, Escherichia coli time kill study ([5]; 1 × MIC, 6 h): 4.38 Log10 CFU/mL | Viable counts, Escherichia coli time kill study ([5]; 1 × MIC, 24 h): 7.75 Log10 CFU/mL | Viable counts, Escherichia coli time kill study ([5]; 1×MIC, time 0): 5.08 Log10 CFU/mL | Viable counts, Escherichia coli time kill study ([5]; 2 × MIC, 1 h): <1 Log10 CFU/mL | Viable counts, Escherichia coli time kill study ([5]; 2 × MIC, 2 h): <1 Log10 CFU/mL | Viable counts, Escherichia coli time kill study ([5]; 2 × MIC, 4 h): <1 Log10 CFU/mL | Viable counts, Escherichia coli time kill study ([5]; 2 × MIC, 6 h): <1 Log10 CFU/mL | Viable counts, Escherichia coli time kill study ([5]; 2 × MIC, 24 h): <1 Log10 CFU/mL | Viable counts, Escherichia coli time kill study ([5]; 2 × MIC, time 0): 5.03 Log10 CFU/mL | Viable counts, Escherichia coli time kill study ([5]; 4 × MIC, 1 h): <1 Log10 CFU/mL | Viable counts, Escherichia coli time kill study ([5]; 4 × MIC, 2 h): <1 Log10 CFU/mL | Viable counts, Escherichia coli time kill study ([5]; 4 × MIC, 4 h): <1 Log10 CFU/mL | Viable counts, Escherichia coli time kill study ([5]; 4 × MIC, 6 h): <1 Log10 CFU/mL | Viable counts, Escherichia coli time kill study ([5]; 4 × MIC, 24 h): <1 Log10 CFU/mL | Viable counts, Escherichia coli time kill study ([5]; 4 × MIC, time 0): 5.05 Log10 CFU/mL | Viable counts, Aspergillus niger time kill study ([6]; 0.5 min): 5.30 Log10 CFU/mL | Viable counts, Aspergillus niger time kill study ([6]; 1 min): 5.16 Log10 CFU/mL | Viable counts, Aspergillus niger time kill study ([6]; 5 min): 5.11 Log10 CFU/mL | Viable counts, Aspergillus niger time kill study ([6]; time 0): 5.36 Log10 CFU/mL
